In article PMC8821551, “Binding of cationic analogues of α-MSH to lipopolysaccharide and disruption of the cytoplasmic membranes caused bactericidal action against Escherichia coli” (Scientific Reports, 2022):
Residues, ends and D or L forms follow the SMILES beside them.

Tests used:
Format in all cases: cell-based, Escherichia coli
[1] = system: stationary phase E. coli cells; assay: Killing assay, stationary phase cells; settings: 10^5 CFU/mL
Method: For this study, a well-characterized strain of E. coli (ATCC 25922) was used. The strain was stored at − 80 °C in 15% (v/v) glycerol until sub-cultured onto LB agar plates for use.
The antibacterial activity of α-MSH and its cationic analogues was determined against both logarithmic (2–3 h) and stationary (16–18 h) phase of E. coli cells in LB medium. The bacterial suspension was pelleted, washed, and diluted in HEPES-glucose buffer (5 mM HEPES, 20 mM glucose, pH 7.4) to adjust the cell density by measuring the OD = 0.5 (10^8 CFU/mL) at 600 nm using a spectrophotometer. This suspension was used to obtain the desired inoculum sizes (10^5 CFU/mL, 10^6 CFU/mL, and 10^7 CFU/mL). The inoculums were exposed to various concentrations of peptides (1 µM, 2 µM, 5 µM, and 10 µM) and incubated at 37 °C. Untreated E. coli cells were also included as a control. At selected time points (0 min, 15 min, 30 min, 60 min, and 120 min), aliquots were taken out, and survival of E. coli cells was determined by quantitative plating on LB agar after appropriate dilution in the same buffer. The plates were incubated overnight at 37 °C, followed by colony counting. Each experiment was performed at least three times on three independent days.

dye-loaded E. coli cells = assay: Viability of DiSC3(5) dye-loaded cells by plating; settings: dye-loaded cells 10^6, HEPES-glucose buffer, two different days
Method: The membrane depolarization of E. coli cells was determined using a potentiometric fluorescent probe DiSC3(5), as described elsewhere. Briefly, mid-log phase E. coli cells were diluted to 10^6 CFU/mL in the same HEPES-glucose buffer and were incubated with DiSC3(5) and EDTA at 0.4 µM and 0.2 mM concentrations, respectively, for 1 h in the dark at 37 °C, till the maximum uptake of the probe occurred. Increasing concentrations of the studied peptides from 1 µM to 10 µM were then added to these dye-loaded cells in a quartz cuvette, and the fluorescence intensity was measured on spectrofluorimeter (Shimadzu RF-5301 PC) set as excitation at 622 nm and emission at 670 nm. The increase in fluorescence intensity accounted for the dissipation of membrane potential caused due to peptide treatment. Cells treated with 10 µM melittin were used as a positive control. Simultaneously, the dye-loaded cells were plated onto LB agar to estimate bacterial cell death.
Figure S1: Survival of dye-loaded cells (10^6) treated with various concentrations of peptides that correspond to the inner membrane depolarization. The dye-loaded E. coli cells suspended in HEPES-glucose buffer ([…]) were incubated with different concentration of α-MSH and its analogues for 2 minutes and further diluted in the same buffer and plated on LB agar plates. The plates were further incubated at 37 °C for 16 h. Next day the colonies were counted.^1 The experiment was performed on two different days and the representative values (mean ± SE) are shown in graph. (⁎, P < 0.05; ⁎⁎, P < 0.01, compared to that of control at the same concentration).

E. coli cells = assay: Membrane permeabilization assay (PI uptake, flow cytometry); settings: 1 h; for PI positive cells: at lower and higher concentrations, from 2 to 10 µM, 10^6 CFU/mL, PI 1.3 µg/mL, 37 °C, flow cytometry; for cell viability on plating the cell suspension used for the PI uptake assay, in words: same cell density and peptide concentrations as PI uptake experiment
Method: Membrane permeabilization of E. coli cells was determined via propidium iodide (PI) uptake assay through flow cytometry as described previously with slight modifications. Briefly, mid-log phase E. coli cells were adjusted to 10^6 CFU/mL in the HEPES-glucose buffer. Next, cells were incubated with propidium iodide (PI) at 1.3 µg/mL concentration for 30 min in the dark. After incubation, PI-loaded cells were treated with a range of peptide concentrations, i.e., 1 µM, 2 µM, 5 µM, and 10 µM, at 37 °C for 1 h, and PI fluorescence intensity was measured through Becton Dickinson (BD) FACS verse (San Jose, CA) flow cytometer using excitation at 544 nm and emission at 620 nm.
Figure S2: Histograms of E. coli cells treated with 2 µM concentration of α-MSH and its analogues and 1 µM concentration of polymyxin B for 1 h. Towards monitoring the membrane permeabilizations of E. coli cells, propidium iodide (PI) uptake assay through flow cytometry was performed using the previously standardized method with mild modifications ^2. Briefly, mid-log phase grown E. coli cells (10^6 CFU/mL) suspended in the HEPES-glucose buffer were incubated with propidium iodide (PI) at a concentration of 1.3 µg/mL for 30 min in dark. After incubation, PI loaded cells were treated with a range of peptide concentrations; 1 µM, 2 µM, 5 µM and 10 µM at 37 °C for 1 h, and PI fluorescence intensity was measured through Becton Dickinson (BD) FACS verse (San Jose, CA) flow cytometer using excitation at 544 nm and emission at 620 nm.

E. coli ATCC 25922 = assay: Transmission electron microscopy (TEM) of treated cells; settings: 100 µM peptide, 2 h, 37 °C, 10^8 CFU/mL mid-log cells
Method: To detect ultra-structural changes in E. coli on peptide treatment, TEM was used[16]. In brief, the mid-log E. coli cells (10^8 CFU/mL) were exposed with 100 µM concentration of all peptides independently for 2 h at 37 °C. After treatment, the cells were washed with PB buffer and fixed with 2.5% glutaraldehyde overnight at 4 °C. Next, the samples were post-fixed in 1.0% OsO4 and stained with uranyl acetate. After fixation, cells were dehydrated in a series of graded acetone and embedded in epoxy resin. Thin sections were made using a microtome (Leica EM UC6), which were transferred onto copper grids and stained with uranyl acetate followed by lead citrate. Samples were viewed via a transmission electron microscope (JEOL 2100F) to detect the ultrastructural and other morphological changes in the bacterial cells.

[2] = peptide 10 µM, 2 min of exposure

| Compound | incubation time to complete removal of the cells ([1]; peptide 1 µM) [h] | log reduction in the viability of the stationary phase cells ([1]; peptide 1 µM, 1 h) [log] | incubation time to eradication of the stationary phase cells ([1]; peptide 10 µM) [min] | log reduction in cell viability of dye-loaded cells (dye-loaded E. coli cells; peptide 5 µM, 2 min exposure) [log] | log reduction in cell viability of dye-loaded cells (dye-loaded E. coli cells; [2]) [log] | PI positive cells (E. coli cells) | cell viability on plating the cell suspension used for the PI uptake assay, in words (E. coli cells) | ultrastructural changes by TEM, in words (E. coli ATCC 25922) | log reduction in cell viability ([1]; HEPES-glucose buffer, 37 °C, peptide 10 µM, 2 h, mean ± SE, three independent days, SEM) [log] | killing activity against stationary phase cells, in words ([1]; peptide 10 µM, up to 2 h) |
| --- | --- | --- | --- | --- | --- | --- | --- | --- | --- | --- |
| CSCC[C@H](NC(=O)[C@H](CCCCN)NC(=O)[C@H](Cc1ccc(O)cc1)NC(=O)[C@H](CCCCN)NC(C)=O)C(=O)N[C@@H](CCCCN)C(=O)N[C@@H](Cc1c[nH]cn1)C(=O)N[C@@H](Cc1ccccc1)C(=O)N[C@@H](CCCNC(=N)N)C(=O)N[C@@H](Cc1c[nH]c2ccccc12)C(=O)NCC(=O)N[C@@H](CCCCN)C(=O)N1CCC[C@H]1C(=O)N[C@H](C(N)=O)C(C)C [KKK-MSH] (Ac-KYKMKHFRWGKPV-NH2) | 2 | 2.5 | 30 | 1.73 | 2.1 | more than 80% | significant reduction in the cell viability | complete collapse of the E. coli membrane | – | – |
| CSCC[C@H](NC(=O)[C@H](CCCCN)NC(=O)[C@H](Cc1ccc(O)cc1)NC(=O)[C@H](CCCCN)NC(C)=O)C(=O)N[C@@H](C)C(=O)N[C@@H](Cc1c[nH]cn1)C(=O)N[C@@H](Cc1ccccc1)C(=O)N[C@@H](CCCNC(=N)N)C(=O)N[C@@H](Cc1c[nH]c2ccccc12)C(=O)NCC(=O)N[C@@H](CCCCN)C(=O)N1CCC[C@H]1C(=O)N[C@H](C(N)=O)C(C)C [KKA-MSH] (Ac-KYKMAHFRWGKPV-NH2) | – | – | – | 1 | 1 | more than 80% | significant reduction in the cell viability | complete collapse of the E. coli membrane | 2.2 ± 0.2 | could not obliterate the stationary phase cells |
